Measured values published in PMC9545004, “Transglutaminase 2 affinity and enzyme‐substrate intermediate stability as determining factors for T‐cell responses to gluten peptides in celiac disease” (European Journal of Immunology, 2022).
pIC50: −log10 of the molar value.

Assays:
[1] = test system: TCR-transfectant cells specific for DQ2.5-glia-α2; experiment: Inhibition by primary amines of activation of DQ2.5-glia-α2-specific T cells by TG2-specific B cells, IL-2 ELISA; format: cell-based; details: for pIC50: 5 µM N-α-gliadin 33-mer, TG2, CaCl2, amine 0-1000 µM, IL-2 ELISA
Excerpt: (§1) Murine A20 B lymphoma cells engineered to express either the celiac patient‐derived TG2‐specific BCR 679‐14‐E06 or the non‐TG2‐specific BCR 693‐2‐F02 as human IgD are previously described. For B‐cell/T‐cell collaboration assays, we used A20 BCR transfectants also transduced to express HLA‐DQ2.5 [27]. Murine BW58α^–β^– cells were retrovirally transduced to express human CD4 as well as the celiac patient‐derived gluten‐specific TCR from a DQ2.5‐glia‐γ1‐reactive T‐cell clone (TCC 4.32) as previously described. The generation of TCR transfectants expressing DQ2.5‐glia‐α2‐reactive TCR (TCC 364.14) and DQ2.5‐glia‐ω2‐reactive TCR (clone 737.30) have been described previously.
The B‐cell/T‐cell collaboration assays were set up as previously described. To compare the uptake and presentation of different gluten peptides to T cells, A20 cells (5 mill/mL) expressing the TG2‐specific BCR (679‐14‐E06) and HLA DQ2.5 were incubated with recombinant TG2 (final 3 µg/mL) and varying amounts of N‐α‐gliadin 20‐mer, N‐ω‐gliadin 19‐mer, or N‐γ‐gliadin 21‐mer in RPMI supplemented with 2 mM CaCl2. After a 30 min incubation at 37°C the cells were washed with 1% FCS/RPMI and resuspended in 5% FCS/RPMI to give a final 1.5 million cells/mL (150 000/well) followed by 2 h incubation at 37°C. Next, TCR‐transfectant cells specific for either DQ2.5‐glia‐α2, DQ2.5‐glia‐ω2, or DQ2.5‐glia‐γ1 were added (25 000/well), followed by overnight incubation at 37°C. The next day, IL‐2 concentration was measured in the culture supernatant by ELISA as previously described. The responsiveness of different TCR transfectants was assessed in the same way, but without the 30 min incubation with TG2, and using the synthetic deamidated peptides (D‐α‐gliadin 20‐mer, D‐ω‐gliadin 17‐mer, and D‐γ‐gliadin 21‐mer). To assess how TG2 secondary substrate affects peptide uptake and presentation to T cells, TG2‐specific A20 cells expressing DQ2.5 were incubated with TG2, CaCl2, 5 µM N‐ω‐gliadin 34‐mer, or 5 µM N‐α‐gliadin 33‐mer in the presence of primary amines at increasing concentrations (0‐1000 µM), before the addition of TCR‐transfectant cells specific for the DQ2.5‐glia‐α2 or DQ2.5‐glia‐ω2 epitopes. The dose‐response curve fitting to find IC50 was done using the “[Inhibitor] vs. response” equation in GraphPad Prism 8.3.0. To examine whether primary amines directly affect the B cells, TG2‐specific A20 cell expressing DQ2.5 were incubated with primary amines for 30 min and washed, before addition of 2 µM D‐ω‐gliadin 34‐mer, followed by incubation with DQ2.5‐glia‐ω2 TCR transfectants.

[2] = test system: TCR-transfectant cells specific for DQ2.5-glia-α2 or DQ2.5-glia-ω2; experiment: Inhibition by primary amines of gluten-specific T-cell stimulation via TG2-specific B cells, both epitopes; format: cell-based; details: native α-gliadin 33-mer and ω-gliadin 34-mer, IL-2 production, Table S2, read-out: IC50, inhibition of T-cell stimulation (range)
Excerpt: as §1
The B‐cell/T‐cell collaboration assays were set up as previously described. […] The next day, IL‐2 concentration was measured in the culture supernatant by ELISA as previously described. The responsiveness of different TCR transfectants was assessed in the same way, but without the 30 min incubation with TG2, and using the synthetic deamidated peptides (D‐α‐gliadin 20‐mer, D‐ω‐gliadin 17‐mer, and D‐γ‐gliadin 21‐mer). […]

[3] = test system: TG2-specific A20 cells expressing DQ2.5 and DQ2.5-glia-ω2 TCR transfectants; experiment: Effect of primary amines on T-cell response to deamidated gluten peptide (off-target/toxicity control); format: cell-based, Murine A20 B cells and BW58α–β– cells; details: 30 min pre-incubation of A20 cells with amine, then D-ω-gliadin 34-mer and DQ2.5-glia-ω2 TCR transfectants; IL-2; Figure S6
Procedure: The B‐cell/T‐cell collaboration assays were set up as previously described. To compare the uptake and presentation of different gluten peptides to T cells, A20 cells (5 mill/mL) expressing the TG2‐specific BCR (679‐14‐E06) and HLA DQ2.5 were incubated with recombinant TG2 (final 3 µg/mL) and varying amounts of N‐α‐gliadin 20‐mer, N‐ω‐gliadin 19‐mer, or N‐γ‐gliadin 21‐mer in RPMI supplemented with 2 mM CaCl2. After a 30 min incubation at 37°C the cells were washed with 1% FCS/RPMI and resuspended in 5% FCS/RPMI to give a final 1.5 million cells/mL (150 000/well) followed by 2 h incubation at 37°C. Next, TCR‐transfectant cells specific for either DQ2.5‐glia‐α2, DQ2.5‐glia‐ω2, or DQ2.5‐glia‐γ1 were added (25 000/well), followed by overnight incubation at 37°C. The next day, IL‐2 concentration was measured in the culture supernatant by ELISA as previously described. The responsiveness of different TCR transfectants was assessed in the same way, but without the 30 min incubation with TG2, and using the synthetic deamidated peptides (D‐α‐gliadin 20‐mer, D‐ω‐gliadin 17‐mer, and D‐γ‐gliadin 21‐mer). […]
or T cells in our cellular assays. […] T-cell activation was assessed b y ELISA quant ification of IL-2 secreted into the cell culture medium. […]

[4] = DQ2.5-glia-α2, replicate Figure S5A
[5] = DQ2.5-glia-α2, replicate Figure S5B
[6] = logIC50, DQ2.5-glia-α2, Figure 5
[7] = logIC50, DQ2.5-glia-α2, replicate Figure S5A
[8] = logIC50, DQ2.5-glia-α2, replicate Figure S5B

| pIC50 ([1]; DQ2.5-glia-α2, Figure 5) | pIC50 ([1]; DQ2.5-glia-α2, mean) | pIC50 [1, 4] | pIC50 [1, 5] | pIC50 [2] | SMILES | logIC50 ([1]; DQ2.5-glia-α2, Figure 5) | logIC50 ([1]; DQ2.5-glia-α2, mean) | logIC50 [1, 4] | logIC50 [1, 5] | log 95% CI lower limit [1, 6] | log 95% CI upper limit [1, 6] | log 95% CI lower limit ([1]; logIC50, DQ2.5-glia-α2, mean) | log 95% CI upper limit ([1]; logIC50, DQ2.5-glia-α2, mean) | log 95% CI lower limit [1, 7] | log 95% CI upper limit [1, 7] | log 95% CI lower limit [1, 8] | log 95% CI upper limit [1, 8] | toxic effect on B cells or T cells in cellular assays [3] |
| --- | --- | --- | --- | --- | --- | --- | --- | --- | --- | --- | --- | --- | --- | --- | --- | --- | --- | --- |
| 4.37 | 4.27 | 4.63 | 4.03 | 4.24 to 4.57 | NCCCCCNC(=O)CCCC[C@@H]1SC[C@@H]2NC(=O)N[C@@H]21 [5-BP, 5‐biotinamido‐pentylamine] | 1.63 | 1.66 | 1.37 | 1.97 | 1.48 | 1.78 | 1.39 | 1.93 | 1.15 | 1.60 | 1.54 | 2.43 | no toxic effect |
| 4.11 | 4.24 | 4.75 | 4.10 | 4.24 to 4.57 | NCCCNCCCCNCCCN [spermine] | 1.89 | 1.68 | 1.25 | 1.90 | 1.53 | 2.27 | 1.25 | 2.11 | 0.638 | 1.83 | 1.59 | 2.22 | no toxic effect |
